Assay results as given in patent publication US8592421B2, “Cyclic bioisosters of purine system derivatives and a pharmaceutical composition based thereon” (priority 2003, dated 2013).

How the values were obtained:
[1] = system: embryonic fibroblasts of mouse NIH-3T3; test: Effect on endocellular pHi of fibroblasts (microspectrofluorimetry with FDA / BCECF-AM); format: cell-based; conditions: for rise of pHi: fibroblasts in an attached spread state; for change of pHi: medium DME without blood serum, 20 minutes; for increase of pHi of cytosol: medium with 10.0% blood serum, 20 minutes after addition
Experimental: The effect of the compounds according to the invention on the endocellular pH, embryonic fibroblasts of mouse NIH-3T3 supplied by the All-Russian Collection of Cellular Cultures of the Institute of Cytology of the Russian Academy of Sciences St. Petersburg was investigated. The cells were grown in the DMEM (Sigma) medium containing 2.2 g/l of sodium bicarbonate with addition of 80.0 mkg/ml of gentamicin and 10.0% embryonal veal serum at a temperature of 37° C. in an atmosphere containing 5.0% of carbon dioxide. For these experiments use was also made of a medium buffer with 5.0 mM of HEPES and 15.0 mM of sodium bicarbonate without serum or with addition of 5.0% serum. The cells were calculated with the help of a hemocytometer. A share of the dead cells was determined by colouring trypan blue.
The measurements of the endocellular pHi were carried out with the help of colorants FDA (Sigma) and BCECF-AM (Calbiochem) on a microspectrofluorimeter by a standard technique (Koshevoy Yu. V., Akatov V. S., Grobova M. E. Microspectrofluorimeter for measuring endocellular pH (micro pH)”. Devices and equipment for studies in the field of physical-and-chemical biology and biotechnology. Pushchino, 1990. P. 8-14).
The cells at a temperature of 37° C. were colored within 5 minutes with 5.0 mkM PDA that before the colouring was prepared from a 10.0 mM solution in acetone by dilution for 30 minutes in a phosphatic buffer to 0.1 mM or 2.0 mkM 1.0 mM solution BCECF-AM in DMSO.
The two-wave method of determining pHi was used based on the ratio intensities of fluorescence of the cells on two wavelengths (Akatov V. S. et all), “Endocellular pH and substrate dependence of proliferation of fibroblasts of Chinese hamster, Cytology, 1991, 33 (7), p. 86-94). The fluorescence was excited by light at λ=490 nm, the emission was recorded simultaneously with two photomultipliers on wavelengths λ=535 nm and λ=570 nm. The K-ratio of the fluorescence on two wavelengths was determined with a deduction of the background fluorescence of the medium near the investigated cells for 40-60 individual cells, which are then averaged taking into account the measurement error. A thermostatically controlled table was used that allowed measurements to be conducted at a temperature of 37° C. An account was taken for the photodynamic damage of the pigmented cells during long-time continuous illumination by excited light. The readings were taken from a section of the preparation exposed to light for not more than 5 minutes.
The calibration curves for determining the absolute pHi values by magnitude K were constructed using the Thomas technique (Thomas J. A., Bushbaum R. N., Zimniak A. w Racker E. “Intracellular pH measurements in Ehrlich ascites tumor cells utilizing spectroscopic probe generated in situ”, Biochemistry, 1979, v. 18, p. 2210-2218), for which case the pigmented cells treated for 5-10 minutes with carboxyacidic nigericyn (Calbiochem) at a concentration of 5-10 mkg/ml was placed in a solution with a high content of potassium—130 mM KCl, 1.0 mM MgCl2, 20.0 mM of HEPES) and with pH values from 6.2 to 7.6. The K values were measured in the media with different pH assuming that pHi of the cells equals to the pH of the medium due to the action of nigericyn, which exchanges potassium ions for protons and at a high content of potassium in the medium counterbalances the pH of the medium and cells. Calibration curves were used based on the fluorescence of same medium with addition of 5.0 mkM of fluorescence or BCECF were used to the control the stability of the of the instrument readings.
The cells were colored by pigment BCECF-AM and pHi was measured 10 minutes after incubation in the medium with an appropriate pH value. […]

[2] = Electrochemical activity: polarographic reduction on mercury dripping electrode; format: physicochemical; conditions: for number of electrons participating in the reduction reaction: calculated with Geirovsky-Ilkovich equation; for i: 2.0% sodium chloride background, 9·10^−4 M; for i / −E1/2: 37° C., forward trace, average for the group of compounds; for −E1/2: vs SCE; for half-wave potential more positive at reverse stroke compared to forward stroke: polarograms of reverse stroke
Experimental: The study was carried out on a general-purpose polarograph PU-1 with a two-coordinate recorder of the “LKD” type using a three-electrode thermostatically controlled polarographic cell and mercury dripping electrode (MDE) with forced separation of the drop and a dropping period of 0.5 second. A platinum wire was used as an auxiliary electrode and a saturated calomel electrode (SCE) was used as a control electrode.
2.0% solutions of sodium chloride having pH 7.0, 7.2, 7.4, 7.6 were used as a background; the pH values of the background solution were corrected by a solution of sodium hydroxide. The polarographic cell was filled with 5.0 ml of the background solution and for 5 minutes was purged with nitrogen for removing the dissolved oxygen. Then 0.5 ml of solution of the studied substance was added to the background solution, and the polarogram was recorded as a polarographic wave. The concentration of the compounds in the polarographic cell was 9·10^−4 M.
The pH was measured on the pH-meter with an accuracy of +0.05 pH units. The polarographic measurements were carried out at a temperature of 37° C. The recording of polarograms of the investigated materials was effected under conditions of DC current at a scanning rate of the potential 10.0 mV/s with a active scanning stroke from a potential 0 to −0.5 V and sweep retrace from a −0.5 V to 0. The electric-current sensitivity was 5.0 mkA. The scale by the coordinate of the potentials was 50.0 mV/cm. The values of potentials of the half-wave E1/2 of the investigated materials are given with respect to the SCE potential.
The polarogram parameters such as a limiting current ilim and E1/2 were determined by the graphic method. The number of electrons participating in the reaction was calculated on the basis of the analysis of the polarographic wave using the Geirovsky-Ilkovich equation.
The calculation of the number of electrons participating in the reduction reaction was effected using the Geirovsky-Ilkovich equation: […]

SMILES	rise of pHi ([1]; 2.0 mkg/ml, on the average) [unit pHi]	rise of pHi ([1]; 20.0 mkg/ml, on the average) [unit pHi]	change of pHi ([1]; 0.02 mkg/ml)	change of pHi ([1]; 0.2 mkg/ml)	change of pHi ([1]; 2.0 mkg/ml, on the average) [unit pHi]	change of pHi ([1]; 20.0 mkg/ml, on the average) [unit pHi]	change of pHi ([1]; 200 mkg/ml)	change of pHi ([1]; 1000 mkg/ml)	increase of pHi of cytosol ([1]; 0.02 mkg/ml)	increase of pHi of cytosol ([1]; 0.2 mkg/ml, on the average) [unit pH]	increase of pHi of cytosol ([1]; 2.0 mkg/ml, on the average) [unit pH]	increase of pHi of cytosol ([1]; 20.0 mkg/ml)	number of electrons participating in the reduction reaction [2]	i ([2]; pH 7.0) [mkA]	−E1/2 ([2]; pH 7.0) [V]	i ([2]; pH 7.2) [mkA]	−E1/2 ([2]; pH 7.2) [V]	i ([2]; pH 7.4) [mkA]	−E1/2 ([2]; pH 7.4) [V]	i ([2]; pH 7.6) [mkA]	further results
O=c1[nH][nH]c(=O)c2ncncc12.[Li] [Compound 35, lithium salt of pyrimido[4,5-d]-6H-pyridazine-5,8-dione]	0.10	0.07	no effect was found	no effect was found	0.08	0.08	no effect was found	no effect was found	do not initiate a change of pH	0.1	0.12	do not initiate a change of pH	3.5	0.30 ± 0.05	0.08 ± 0.02	0.26 ± 0.02	0.085 ± 0.015	0.30 ± 0.03	0.085 ± 0.02	0.30 ± 0.02	−E1/2 ([2]; pH 7.6): 0.09 ± 0.02 V; half-wave potential more positive at reverse stroke compared to forward stroke [2]: 27.0 mV
O=c1[nH][nH]c(=O)c2ncccc12.[Na] [Compound 7, sodium salt of pyrido[2,3-d]-6H-pyridazine-5,8-dione]	0.10	0.07	no effect was found	no effect was found	0.08	0.08	no effect was found	no effect was found	do not initiate a change of pH	0.1	0.12	do not initiate a change of pH	3.72	0.26 ± 0.04	0.11 ± 0.02	0.31 ± 0.02	0.11 ± 0.03	0.27 ± 0.03	0.105 ± 0.01	0.30 ± 0.01	−E1/2 ([2]; pH 7.6): 0.105 ± 0.02 V; half-wave potential more positive at reverse stroke compared to forward stroke [2]: 25.0 mV
O=C([O-])c1ccc2c(=O)[nH][nH]c(=O)c2c1.O=C([O-])c1ccc2c(=O)[nH][nH]c(=O)c2c1.[Na+].[Na+] [Compound 18, disodium salt of 6-carboxy-benzo[d]-3H-pyridazine-1,4-dione]	0.10	0.07	no effect was found	no effect was found	0.08	0.08	no effect was found	no effect was found	do not initiate a change of pH	0.1	0.12	do not initiate a change of pH	4.09	0.23 ± 0.03	0.092 ± 0.02	0.30 ± 0.01	0.09 ± 0.01	0.29 ± 0.02	0.092 ± 0.02	0.31 ± 0.02	−E1/2 ([2]; pH 7.6): 0.09 ± 0.01 V; half-wave potential more positive at reverse stroke compared to forward stroke [2]: 30.0 mV
